Among the data in US20240425482A1, “PYRROLIDINE DERIVATIVES AS DDRS INHIBITORS” (CHIESI FARMACEUTICI S.P.A., priority 2021, published 2024) are Ki values, retold here.

One experiment concerns the target DDR1 (Homo sapiens (Human), UniProt Q08345). Nature of the experiment: DDR1 LanthaScreen Europium Kinase Binding assay. The following applies: binding; 5 nM DDR1, 20 nM Kinase Tracer 178, 1 hour at rt; Ki from IC50 by Cheng-Prusoff; read-out: Ki DDR1. The method, then:
(§1) DDR1 and DDR2 binding assays were performed using Life Technologies LanthaScreen™ Europium Kinase Binding assay. The compounds were incubated with 5 nM DDR1 (Carna Biosciences) or 5 nM DDR2 (Life Technologies) for 1 hour at rt in white 384-well OptiPlate (PerkinElmer), containing 20 nM or 10 nM Kinase Tracer 178 respectively and 2 nM Europium labelled anti-GST antibody (Life Technologies) in assay buffer (50 mM HEPES pH 7.5, 10 mM MgCI2, 1 mM EGTA and 0.01% BRIJ35). The ratio of fluorescence emission 665 nm/615 nm after excitation at 340 nm was obtained using the Tecan Spark 20M plate reader. IC50 values were determined in GraphPad Prism 7.0 software, using 4 parameter model: log(inhibitor) vs. response. IC50 values were converted in Ki using the Cheng-Prusoff equation (Ki=IC50/(1+[Tracer]/Kd).
(§2) Compounds C1 and C2 were tested in the same binding assay described above.
On the technique in general: TR-FRET usually uses a lanthanide donor and a delayed reading to cut background.

The target in the next experiment is DDR2 (Homo sapiens (Human), UniProt Q16832). Nature of the experiment: DDR2 LanthaScreen Europium Kinase Binding assay. The following applies: binding; 5 nM DDR2, 10 nM Kinase Tracer 178, 1 hour at rt; Ki from IC50 by Cheng-Prusoff; read-out: Ki DDR2. The method, then: as §1, §2
DDR2, sequence (Q16832 22-855): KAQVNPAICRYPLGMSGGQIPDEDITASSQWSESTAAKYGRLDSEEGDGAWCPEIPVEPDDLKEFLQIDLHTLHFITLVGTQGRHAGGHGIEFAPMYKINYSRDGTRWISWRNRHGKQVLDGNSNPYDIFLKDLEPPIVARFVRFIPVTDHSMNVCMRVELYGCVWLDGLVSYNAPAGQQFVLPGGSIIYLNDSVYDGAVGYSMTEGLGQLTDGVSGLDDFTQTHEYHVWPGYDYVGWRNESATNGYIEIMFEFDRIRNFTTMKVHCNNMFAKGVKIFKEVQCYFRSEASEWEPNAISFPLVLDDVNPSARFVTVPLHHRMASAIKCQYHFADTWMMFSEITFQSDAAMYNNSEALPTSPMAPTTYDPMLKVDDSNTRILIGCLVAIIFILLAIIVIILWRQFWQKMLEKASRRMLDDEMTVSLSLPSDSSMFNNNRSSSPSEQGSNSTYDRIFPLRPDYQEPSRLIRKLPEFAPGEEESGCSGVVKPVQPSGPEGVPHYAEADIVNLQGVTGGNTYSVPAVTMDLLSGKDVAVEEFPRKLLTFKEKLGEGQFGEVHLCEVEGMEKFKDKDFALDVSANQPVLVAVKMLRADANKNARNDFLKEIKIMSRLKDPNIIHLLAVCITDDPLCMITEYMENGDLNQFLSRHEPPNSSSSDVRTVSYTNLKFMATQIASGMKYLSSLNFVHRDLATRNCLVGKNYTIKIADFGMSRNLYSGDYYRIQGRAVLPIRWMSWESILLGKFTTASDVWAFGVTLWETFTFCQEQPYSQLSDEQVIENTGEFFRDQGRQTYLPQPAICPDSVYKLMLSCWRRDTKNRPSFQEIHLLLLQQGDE

DDR1, sequence (Q08345 19-913): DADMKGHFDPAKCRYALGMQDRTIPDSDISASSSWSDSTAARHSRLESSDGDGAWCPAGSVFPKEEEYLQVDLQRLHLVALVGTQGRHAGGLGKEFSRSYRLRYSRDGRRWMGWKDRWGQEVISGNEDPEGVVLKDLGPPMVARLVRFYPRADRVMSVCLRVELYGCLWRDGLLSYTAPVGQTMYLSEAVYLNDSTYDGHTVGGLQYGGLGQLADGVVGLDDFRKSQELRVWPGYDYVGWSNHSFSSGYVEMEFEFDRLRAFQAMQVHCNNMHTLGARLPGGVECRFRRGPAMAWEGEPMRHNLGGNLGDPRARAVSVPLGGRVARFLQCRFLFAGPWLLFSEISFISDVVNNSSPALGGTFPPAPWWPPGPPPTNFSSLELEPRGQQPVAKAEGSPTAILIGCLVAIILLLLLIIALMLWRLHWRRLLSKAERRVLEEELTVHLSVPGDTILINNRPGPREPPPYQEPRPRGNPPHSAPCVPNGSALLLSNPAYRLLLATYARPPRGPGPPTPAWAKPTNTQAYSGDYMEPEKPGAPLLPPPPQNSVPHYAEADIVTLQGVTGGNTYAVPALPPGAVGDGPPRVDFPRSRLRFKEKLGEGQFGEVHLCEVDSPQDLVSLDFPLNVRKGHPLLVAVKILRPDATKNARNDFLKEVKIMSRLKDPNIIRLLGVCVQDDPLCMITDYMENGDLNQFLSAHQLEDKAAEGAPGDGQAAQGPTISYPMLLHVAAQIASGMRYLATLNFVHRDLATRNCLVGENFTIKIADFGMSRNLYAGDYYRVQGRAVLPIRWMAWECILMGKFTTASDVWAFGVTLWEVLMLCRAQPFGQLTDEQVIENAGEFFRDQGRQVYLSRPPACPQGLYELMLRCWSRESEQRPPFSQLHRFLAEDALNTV

With `Cc1ccc(C(=O)Nc2cccc(C(F)(F)F)c2)cc1[C@@H]1CCN(c2cncc(C(N)=O)c2)C1` [Example 19, (S)-5-(3-(2-methyl-5-((3-(trifluoromethyl)phenyl)carbamoyl)phenyl)pyrrolidin-1-yl)nicotinamide], the inhibition constant (Ki) on DDR1 and at DDR2 was under 10 nM in each case.

On to `Cc1ccc(C(=O)Nc2cccc(C(F)(F)F)c2)cc1[C@@H]1CCN(c2ccc(Nc3cnn(C)c3)nc2)C1` [Example 44, (S)-4-methyl-3-(1-(6-((1-methyl-1H-pyrazol-4-yl)amino)pyridin-3-yl)pyrrolidin-3-yl)-N-(3-(trifluoromethyl)phenyl)benzamide], for which the Ki (commonly the dissociation constant of the complex between target and ligand, obtained from inhibition or displacement) at DDR1 lay in the range of 10 to 25 nM; at DDR2, 25 to 60 nM.

Regarding `Cc1ccc(C(=O)Nc2cccc(C(F)(F)F)c2)cc1C1CCN(c2cncc(Br)c2)C1` (centres unmarked) [Example 13, 3-(1-(5-bromopyridin-3-yl)pyrrolidin-3-yl)-4-methyl-N-(3-(trifluoromethyl)phenyl)benzamide], the Ki is 10 to 25 nM on DDR1 and 25 to 60 nM at DDR2.

Regarding `Cc1ccc(C(=O)Nc2ccc(CN(C)C)c(C(F)(F)F)c2)cc1[C@@H]1CCN(c2cncc(C(N)=O)c2)C1` [Example 58, (S)-5-(3-(5-((4-((dimethylamino)methyl)-3-(trifluoromethyl)phenyl)carbamoyl)-2-methylphenyl)pyrrolidin-1-yl)nicotinamide], the results for the inhibition constant Ki at DDR1 and at DDR2 were under 10 nM and 10 to 25 nM, respectively.

Turning to `CC(=O)Nc1cc(N2CC[C@@H](c3cc(C(=O)Nc4cccc(C(F)(F)F)c4)ccc3C)C2)ccn1` [Example 41, (S)-3-(1-(2-acetamidopyridin-4-yl)pyrrolidin-3-yl)-4-methyl-N-(3-(trifluoromethyl)phenyl)benzamide], the inhibition constant (Ki) on DDR1 and at DDR2 was under 10 nM each time.

Consider `CC(=O)Nc1ncc(N2CC[C@@H](c3cc(C(=O)Nc4cccc(C(F)(F)F)c4)ccc3C)C2)cn1` [Example 51, (S)-3-(1-(2-acetamidopyrimidin-5-yl)pyrrolidin-3-yl)-4-methyl-N-(3-(trifluoromethyl)phenyl)benzamide], for which the inhibitory constant (Ki) at DDR1 was under 10 nM; at DDR2, 10 to 25 nM.

With `Cc1ccc(C(=O)Nc2cccc(C(F)(F)F)c2)cc1[C@@H]1CCN(c2cncc(Nc3cnn(C)c3)c2)C1` [Example 45, (S)-4-methyl-3-(1-(5-((1-methyl-1H-pyrazol-4-yl)amino)pyridin-3-yl)pyrrolidin-3-yl)-N-(3-(trifluoromethyl)phenyl)benzamide], the figures for the Ki on DDR1 and on DDR2 were under 10 nM and 10 to 25 nM, respectively.
